Measurements: US12600740B2, “Fluorinated N-acetyl glucosamine analogs and xylose derivatives” (UTI Limited Partnership, priority 2018, dated 2026)
“Also recorded” adds a separate entry of the source. Structures can show the parent of a compound that is named as a salt.

Tests used:
[1] = system: CSPG production by astrocytes; experiment: Western blot of astrocyte conditioned medium, MAB2030 (chondroitin sulfate GAG stubs); assay type: cell-based, mouse; conditions: astrocyte conditioned media, 50 μM, 48 hours
Source text: Astrocytes are major producers of CSPGs following injury in the CNS [Jones, L. L., Margolis, R. U. & Tuszynski, M. H. The chondroitin sulfate proteoglycans neurocan, brevican, phosphacan, and versican are differentially regulated following spinal cord injury. Experimental Neurology 182, 399-411 (2003); Tang, X., Davies, J. E. & Davies, S. J. Changes in distribution, cell associations, and protein expression levels of NG2, neurocan, phosphacan, brevican, versican V2, and tenascin-C during acute to chronic maturation of spinal cord scar tissue. […] The Journal of neuroscience: the official journal of the Society for Neuroscience 20, 2427-2438 (2000); McKeon, R. J., Jurynec, M. J. & Buck, C. R. The chondroitin sulfate proteoglycans neurocan and phosphacan are expressed by reactive astrocytes in the chronic CNS glial scar. The Journal of neuroscience: the official journal of the Society for Neuroscience 19, 10778-10788 (1999); Haas, C. A., Rauch, U., Thon, N., Merten, T. & Deller, T. Entorhinal cortex lesion in adult rats induces the expression of the neuronal chondroitin sulfate proteoglycan neurocan in reactive astrocytes. The Journal of neuroscience: the official journal of the Society for Neuroscience 19, 9953-9963 (1999)] and they may help drive progression of disability in a model of progressive MS [Mayo, L. et al. Regulation of astrocyte activation by glycolipids drives chronic CNS inflammation. Nature medicine 20, 1147-1156 (2014)]. Therefore astrocytes were used as model cells to determine the ability of the sugar analogs to reduce synthesis of CSPGs. Since CSPGs are exported out of cells, the conditioned media from analog-treated astrocytes were probed by Western blots (FIG. 4). We used antibodies to both the stubs of chondroitin sulfate GAGs attached to the core protein (MAB2030) and to intact 4-sulfated chondroitin sulfate sidechains (2H6) (FIG. 4a). Particularly, we used the 2H6 antibody to label intact 4-sulfated chondroitin sulfate sidechains, and the MAB2030 antibody to detect the stubs of chondroitin sulfate GAGs attached to the core protein. […] 1998, 160 (8), 3812-3819. Poole Poole C. A.; Glant T. T.; Schofield J. R.; Chondrons from articular cartilage. (IV). Immunolocalization of proteoglycan epitopes in isolated canine tibial chondrons. J. Histochem. Cytochem. 1991, 39 (9), 1175-1187].
Astrocytes were plated in uncoated 6-well plates (3 replicate wells per treatment) at 1×10^6 cells/well in mixed glial media, and incubated at 5% CO2 and 37° C. Astrocytes were treated with compounds at 50 μM in AIM-V media for 48 hours. Media was pooled from 3 replicate wells in 15 ml 100K cutoff centricon tubes (EMD Millipore, #UFC905008), which were spun on an ultracentrifuge at 5000× g for 2 cycles of 10 minutes each. When harvested, the cell lysate was kept on ice for 5 minutes with 250 μL of RIPA buffer (ThermoFisher Scientific #89900) containing proteinase inhibitor, and then collected and centrifuged at 14000 g for 5 minutes. Total protein was quantified using a Bradford assay. Conditioned media that were to be probed for chondroitin 4-sulfate GAGs (Millipore, #MAB2030) were first digested with 0.2 U/ml chondroitinase ABC for overnight at 37° C. to remove chondroitin sulfate sidechains. Blots that were to be probed with CSA (2H6, Cosmo) or CS56 (Abcam #ab11570) were not exposed to chondroitinase ABC. Samples were heat denatured with NuPAGE® LDS Sample buffer at 70° C. for 10 minutes and then loaded into 3-8% tris-acetate pre-cast gels (ThermoFisher, #EA0478BOX). The gels were electrophoresed at a constant 150 V for 90 minutes and transferred to a […] polyvinylidene fluoride membrane at a constant 250 mA for 60 minutes. The membranes were blocked for one hour with 10% skim milk in Tris-buffered saline (TBS; 0.9% NaCl, 10 mM Tris-HCl, pH 7.5) containing 0.5% Tween 20 (TBS-T). Primary antibodies were added in 3% skim milk and incubated overnight at 4° C. […]

[2] = system: oligodendrocyte precursor cells (OPCs); experiment: Growth of OPCs on astrocyte-secreted extracellular matrix; assay type: cell-based, mouse; conditions: astrocytes treated 48 hours, then removed; OPCs plated on matrix
Source text: The process of remyelination requires oligodendrocyte lineage cells to undergo process outgrowth prior to their expression of mature myelin proteins for repair. Thus, process outgrowth in culture by cells of the oligodendrocyte lineage has been used as one surrogate for myelinating potential in vivo [Keough, M. B.; Rogers, J. A.; Zhang, P.; Jensen, S. K.; Stephenson, E. L.; Chen, T.; Hurlbert, M. G.; Lau, L. W.; Rawji, K. S.; Plemel, J. R. et al. An inhibitor of chondroitin sulfate proteoglycan synthesis promotes central nervous system remyelination. Nat. Commun. 2016, 7, 11312], since an oligodendrocyte needs to elaborate multiple protrusions emanating in several directions to contact many axons, and where these processes then compact around axons to form myelin segments. The presence of CSPGs in culture impairs the process outgrowth of OPCs, and this has been linked to reduced remyelination capacity in vivo [Keough, M. B.; Rogers, J. A.; Zhang, P.; Jensen, S. K.; Stephenson, E. L.; Chen, T.; Hurlbert, M. G.; Lau, L. W.; Rawji, K. S.; Plemel, J. R. et al. An inhibitor of chondroitin sulfate proteoglycan synthesis promotes central nervous system remyelination. Nat. Commun. 2016, 7, 11312]. It was reported previously that astrocytes in culture produce a plate-bound matrix abundant in CSPGs, that is left behind once astrocytes are removed from the plate, and this CSPG-containing matrix inhibits the outgrowth of plated OPCs [Keough, M. B. et al. An inhibitor of chondroitin sulfate proteoglycan synthesis promotes central nervous system remyelination. Nature communications 7, 11312 (2016)] (FIG. 7a). Thus, astrocytes were treated with test compounds for 48 hours and they were then removed from the cell culture plate leaving only their secreted ECM behind (FIG. 7a). When OPCs were plated on the astrocyte matrix, the extent of their process outgrowth over […] of observation was inhibited (FIG. 7b). […] OPCs growing in the absence of astrocyte ECM can reach a mean outgrowth around 300 μm (FIG. 7b,c). […] These compounds were: Ac-4,4-diF-GlcNAc 16 (Ac-4,4-diF-GlcNAc), fluorosamine 3 and its O1-deacetylated analog 10 (Ac-4-F-GlcNAcOH), anomeric O-propanoate 7, anomeric O-butanoate 8 (Ac-4-F-GlcNAcOBu), and the 4-fluorinated GalNAc derivative 13 (Ac-4-F-GalNAc) (FIG. 7c).
In brief, cortices from postnatal days 1-3 mouse brains were dissociated with papain digestion and then plated as a mixed culture for 7 days in a 37° C. incubator at 8.5% CO2 whereupon OPCs and microglia tended to be loosely attached on top of a monolayer of astrocytes; the OPCs and microglia were then shaken off when placed on an orbital shaker at 220 r.p.m. at 37° C. and 5% CO2 overnight. The media containing microglia and OPCs were collected and added to a 100 mm tissue culture dish and left at 37° C. and 5% CO2 for 30 min, to allow preferential adhesion of microglia. The media were collected again, now containing OPCs, and used as the OPC-enriched isolates for experiments. For the remaining adhered cells, largely astrocytes, these were removed with 0.25% trypsin and after centrifugation and washing, these astrocytes were plated at a density of 1.0×10^5 cells in flat bottom 96-well plates coated with 10 μg/ml poly-L-lysine. Cells were grown for 7 days at 37° C. and 5% CO2 in MGM and daily media changes. Astrocytes were carefully removed with EDTA treatment (0.2 g EDTA (Na4) per liter PBS, 30 minutes at 37° C. and 5% CO2) and mechanical dislodgement with a micropipetter. The remaining ECM left behind was covered with PBS at 4° C. until OPCs were seeded. Enriched OPCs from mixed glial cultures were seeded at a density of 5-10×10^4 cells per well in OPC media and grown at 37° C. and 8.5% CO2 for 18-24 h and then were fixed with 4% ice-cold paraformaldehyde at 4° C. for 10 min, rinsed with PBS, and stored at 4° C. until immunocytochemistry. […]

mouse astrocytes = experiment: Propidium iodide/calcein AM toxicity on astrocytes; assay type: cell-based; conditions: 100 μM, 48 hours
Experimental: Toxicity on astrocytes was assayed with propidium iodide/calcein AM […]. Live cells convert calcein AM into a green fluorescent product, whereas dying/dead cells are stained with propidium iodide.
96-well plates were imaged with ImageXpress® Micro Cellular Imaging and Analysis System (Molecular Devices, Sunnyvale, CA). Twelve images per well were collected at ×10 magnification. Images were processed with MetaXpress analysis software. OPC outgrowth was calculated by the MetaExpress® “neurite outgrowth” software module which uses fluorescence and user-modified parameters to document the overall extent of processes emanating from the cell soma, regardless of size of the protrusions or the number of branches. This was previously detailed elsewhere [Cua, R. C.; Lau, L. W.; Keough, M. B.; Midha, R.; Apte, S. S.; and Yong, V. W. Overcoming neurite-inhibitory chondroitin sulfate proteoglycans in the astrocyte matrix. Glia 2013, 61 (6), 972-84]. Live-dead cell assay was calculated with MetaXpress analysis software with the “multiwavelength cell scoring”, which uses fluorescent intensity to measure co-localization of calcein AM, propidium iodide, and […]. Data from the 12 images were averaged to a single data point per well, wherein the OPC outgrowth data calculated from the MetaExpress® “neurite outgrowth” readout was divided by data from the same 12 fields of cell number that was acquired through the multiwavelength cell scoring. This provided mean outgrowth per cell per well, with four well replicates per treatment. Experiments were repeated at least twice.
A mixture was created containing propidium iodide (10 μg/ml) to stain dead cells, 10 μM Calcein AM (ThermoFisher, #C3100MP) to identify live cells, and 2 drops per ml of media of NucBlue™ Live ReadyProbes™ Reagent (ThermoFisher, #R37605) to identify nuclei. The mixture was added to plate media and incubated for 20-30 minutes at 37° C. and 5% CO2 before imaging. Excitation/emission of calcein-AM (λex 490 nm, λem 515 nm), propidium iodide (λex 535 nm, λem 617 nm), and nuclear blue (λex 350 nm, λem 461 nm) was performed using ImageXpress® Micro Cellular Imaging and Analysis System (Molecular Devices, Sunnyvale, CA) and analyzed by MetaExpress multiwavelength cell scoring program.

TNFα = TNFα ELISA of LPS-stimulated bone marrow-derived macrophages; assay type: cell-based, mouse; conditions: BMDMs, 50 μM, LPS 100 ng/ml, 24 hours
Experimental: Multiple Sclerosis: Mechanisms and Immunotherapy. Neuron 97, 742-768 (2018)]. It was tested whether the sugar analogs could affect the activity of macrophages, using bone marrow-derived macrophages (BMDMs) stimulated with lipopolysaccharide (LPS, 100 ng/ml). The sugar analogs were added at 50 μM prior to LPS, and the conditioned medium was collected after 24 hours and assayed for levels of the secreted cytokine TNFα. […] Testing Toxicity of Sugar Analogs
Femurs were carefully removed from euthanized female C57BI/6 mice, and marrow was flushed into a culture plate with cold complete bone marrow growth medium (DMEM, 10% fetal bovine serum, and the supplements 1% penicillin/streptomycin, 1% glutamine, 1% non-essential amino acids, and 10% supernatant from L929 cell-line enriched in macrophage-colony stimulating factor). Cells were spun at 1100 rpm for 10 minutes, resuspended in fresh growth medium and plated at 10×10^6 cells/ml in a 10 cm culture dish. Cells were grown in DMEM with supplements and L929 supernatant for 5 days, then half the medium was replaced with fresh growth medium. On day 7 growth medium was replaced with DMEM with 10% FBS and supplements. Cells were used on day 8, and experiments were conducted in DMEM with 1% FBS and supplements unless otherwise specified.
BMDM were plated at 25,000 cells in 96-well plates in DMEM+L929 media. After 24 hours media was changed to DMEM+1% FBS. One hour later, cells were treated with […] compounds or PBS. After 1 hour LPS (final concentration 100 ng/ml) was added. Following 24 hours, conditioned media was harvested for TNFα ELISA (Thermo Scientific), which was performed according to manufacturer's instructions.

| SMILES | effect on CSPG production by astrocytes ([1]; sodium salt) | mean process outgrowth of OPCs on astrocyte ECM [2] | toxicity on astrocytes (propidium iodide/calcein AM) (mouse astrocytes) | effect on CSPG production by astrocytes [1] | TNFα production by LPS-stimulated macrophages (TNFα) |
| --- | --- | --- | --- | --- | --- |
| CC(=O)O[C@@H]1[C@@H](OC(C)=O)[C@H](OCCCCCCS(=O)(=O)O)OC[C@H]1OC(C)=O [Compound 23, 6-Sulfohexyl 2,3,4-tri-O-acetyl-β-D-xylopyranoside, sodium salt] | CSPG production was not impacted; also recorded: did not decrease CSPG production in astrocytes | significantly enhanced OPC outgrowth |  |  |  |
| OO [Compound H2O2, reference compound] |  |  | caused a significant increase in toxicity; also recorded: caused increase in propidium iodide-positive staining |  |  |
| CC(=O)NC1C(OC(C)=O)OC(C(F)F)[C@@H](OC(C)=O)C1OC(C)=O (stereo in doubt) [Compound 18, 2-acetamido-1,3,4-tri-O-acetyl-2,6-dideoxy-6,6-difluoro-α/β-D-glucopyranose] |  | significantly enhanced OPC outgrowth |  | did not decrease CSPG production in astrocytes |  |
| CC(=O)O[C@H]1OC[C@@H](F)[C@H](OC(C)=O)[C@H]1OC(C)=O [Compound 27, 1,2,3-Tri-O-acetyl-4-deoxy-4-fluoro-α-D-xylopyranose] |  |  |  | did not reduce CSPG production | enhanced TNFα levels |
